Measured values reported in the supplement of paper PMC13380429.

What was measured:
Details in all cases: 72 h
[1] = test system: Calu-3; test: relative viability EC50 (midpoint between 100% and the lowest measured viability); higher = less toxic
[2] = test system: Vero E6; test: as above
[3] = test system: U2OS; test: as above
[4] = test system: HepG2; test: as above
[5] = test system: Caco-2; test: as above
[6] = test system: Calu-3; test: cell viability relative to DMSO; higher = less toxic
[7] = test system: Vero E6; test: as above
[8] = test system: U2OS; test: as above
[9] = test system: HepG2; test: as above
[10] = test system: Caco-2; test: as above
[11] = test system: Calu-3; test: drug sensitivity score (DSS) for viability; higher = more toxic; extreme values may be limits of the assay
[12] = test system: Vero E6; test: as above
[13] = test system: U2OS; test: as above
[14] = test system: HepG2; test: as above
[15] = test system: Caco-2; test: as above

Row | SMILES | relative viability EC50 [1] [µM] | relative viability EC50 [2] [µM] | relative viability EC50 [3] [µM] | relative viability EC50 [4] [µM] | relative viability EC50 [5] [µM] | cell viability ([6]; 1 nM) [%] | cell viability ([6]; 10 nM) [%] | cell viability ([6]; 100 nM) [%] | cell viability ([6]; 1000 nM) [%] | cell viability ([6]; 10000 nM) [%] | cell viability ([7]; 1 nM) [%] | cell viability ([7]; 10 nM) [%] | cell viability ([7]; 100 nM) [%] | cell viability ([7]; 1000 nM) [%] | cell viability ([7]; 10000 nM) [%] | cell viability ([8]; 1 nM) [%] | cell viability ([8]; 10 nM) [%] | cell viability ([8]; 100 nM) [%] | cell viability ([8]; 1000 nM) [%] | cell viability ([8]; 10000 nM) [%] | cell viability ([9]; 1 nM) [%] | cell viability ([9]; 10 nM) [%] | cell viability ([9]; 100 nM) [%] | cell viability ([9]; 1000 nM) [%] | cell viability ([9]; 10000 nM) [%] | cell viability ([10]; 1 nM) [%] | cell viability ([10]; 10 nM) [%] | cell viability ([10]; 100 nM) [%] | cell viability ([10]; 1000 nM) [%] | cell viability ([10]; 10000 nM) [%] | drug sensitivity score [11] | drug sensitivity score [12] | drug sensitivity score [13] | drug sensitivity score [14] | drug sensitivity score [15]
1 | CC(C)(C)NCC(O)COc1cccc2[nH]c(=O)[nH]c12 (stereo not drawn) | > 10 | > 10 | > 10 | > 10 | > 10 | 94.9 | 101 | 88.6 | 106 | 106 | 98.7 | 97.2 | 97.1 | 103 | 105 | 96.8 | 97 | 97.4 | 97.9 | 101 | 97.7 | 93.3 | 105 | 110 | 113 | 96.7 | 100 | 96.5 | 97 | 97.9 | 0 | 0 | 0 | 0 | 0
2 | CCN(c1cc(C#CCN2CCOCC2)cc(C(=O)NCc2c(C)cc(C)[nH]c2=O)c1C)[C@H]1CC[C@H](N(C)CCOC)CC1 | > 10 | > 10 | > 10 | > 10 | > 10 | 97.6 | 95.3 | 108 | 103 | 103 | 107 | 96.9 | 95.9 | 96.8 | 102 | 94.3 | 95.7 | 96.4 | 97.7 | 103 | 92.7 | 122 | 112 | 105 | 91.2 | 92.5 | 103 | 86.4 | 95.3 | 91.6 | 0 | 0 | 0 | 0 | 0
3 | CN(C)Cc1c(C(=O)NCCOc2ccc(C(=O)NO)cc2)oc2ccccc12 | 0.276 | 0.738 | 0.292 | 0.231 | 0.425 | 95.3 | 93.2 | 73.5 | 31.9 | 8.2 | 97.4 | 96.2 | 95.7 | 38.2 | -0.1 | 96.9 | 101 | 82.4 | 15.8 | 1.3 | 98.9 | 92.7 | 76.5 | 11.4 | 0.1 | 90.2 | 101 | 89.2 | 23.6 | 1.4 | 16.1 | 13 | 17.6 | 19 | 15.6
4 | CN(CCOc1ccc(-c2ccc3c(c2)OCO3)cc1C(C)(C)C)CC(=O)O | > 10 | > 10 | > 10 | > 10 | > 10 | 100 | 95.1 | 93.9 | 103 | 107 | 99.3 | 97.6 | 97.6 | 95.3 | 98.7 | 93.9 | 98.5 | 97.5 | 101 | 100 | 95.8 | 89.7 | 110 | 92.9 | 110 | 104 | 102 | 94.2 | 92.8 | 89.8 | 0 | 0 | 0 | 0 | 0
5 | COc1ccc(CNC(=O)c2sc3nc(C)cc(C)c3c2N)cc1 | > 10 | > 10 | > 10 | > 10 | > 10 | 98.7 | 98.8 | 98.2 | 97.6 | 101 | 95.8 | 101 | 106 | 93.2 | 94.4 | 94.1 | 92.1 | 92.5 | 96.4 | 94.7 | 83.3 | 94.4 | 93.9 | 91.9 | 107 | 95.8 | 96.7 | 93.6 | 97.1 | 93.5 | 0 | 0 | 0 | 0 | 0
6 | COc1ccc(Nc2ncnc3ccc(OC)cc23)cc1 | > 10 | > 10 | > 10 | > 10 | > 10 | 93.9 | 108 | 95.4 | 89.6 | 77.5 | 102 | 106 | 99.6 | 100 | 85.2 | 101 | 102 | 103 | 99 | 106 | 106 | 98.3 | 93.5 | 93 | 83 | 105 | 102 | 101 | 99.5 | 91.3 | 1.5 | 0.2 | 0 | 0.6 | 0
7 | Cc1ccc(NC(=O)c2cccc(N(C)C)c2)cc1NC(=O)c1ccc(O)cc1 | > 10 | > 10 | > 10 | > 10 | > 10 | 104 | 104 | 91.7 | 94.7 | 99 | 101 | 99.8 | 98.4 | 101 | 102 | 104 | 100 | 99.5 | 97 | 104 | 98.8 | 97.7 | 105 | 94.3 | 84.1 | 101 | 102 | 89 | 93.6 | 81.8 | 0 | 0 | 0 | 0.8 | 0.8
8 | Cn1cc(-c2ccc3nnc(C(F)(F)c4ccc5ncccc5c4)n3n2)cn1 | > 10 | > 10 | > 10 | > 10 | > 10 | 97.4 | 104 | 89.6 | 108 | 106 | 99.9 | 107 | 101 | 97.8 | 92.4 | 104 | 101 | 101 | 95.5 | 96.9 | 102 | 94.3 | 105 | 109 | 104 | 105 | 96 | 95.3 | 95.9 | 92.3 | 0 | 0 | 0 | 0 | 0
9 | N=C(C[C@@H](O)COc1ccccc1-c1ccccc1)N1CCCCC1 | > 10 | > 10 | > 10 | > 10 | > 10 | 100 | 98.2 | 90.1 | 104 | 83.6 | 97.5 | 102 | 96.6 | 96.8 | 102 | 99.9 | 103 | 96.8 | 102 | 92.8 | 92.8 | 94.5 | 109 | 84.4 | 101 | 95.7 | 100 | 81.8 | 96.6 | 89.5 | 0.2 | 0 | 0 | 0 | 0
10 | Nc1nc2c(c(N3CCNCC3)n1)CCC1=C2[C@@H]2CCCC[C@@H]2O1 | > 10 | > 10 | > 10 | – | > 10 | 104 | 105 | 101 | 106 | 96.4 | 96.3 | 93 | 93.6 | 88.5 | 90 | 102 | 100 | 99.5 | 98.8 | 101 | 94.8 | 105 | 109 | 102 | 54.2 | 99.3 | 95.5 | 93 | 91.5 | 103 | 0 | 0.1 | 0 | 2.2 | 0
11 | O=C(CC12CC3CC(CC(C3)C1)C2)Nc1cccc2nc(NCCNCCO)ccc12 | > 10 | > 10 | > 10 | > 10 | > 10 | 99 | 101 | 92.1 | 98.4 | 94.9 | 96 | 102 | 95.8 | 91.4 | 100 | 96.1 | 102 | 95.2 | 97.9 | 95.1 | 97.5 | 94.7 | 93.7 | 96.8 | 99.9 | 91.2 | 93.1 | 93.8 | 91.8 | 91.8 | 0 | 0 | 0 | 0 | 0
12 | O=S(=O)(/N=C/c1c(O)ccc2ccccc12)c1cccs1 | > 10 | > 10 | > 10 | > 10 | > 10 | 91.3 | 99.3 | 99.8 | 104 | 100 | 99.9 | 102 | 100 | 106 | 94.5 | 103 | 100 | 98.9 | 99.5 | 103 | 100 | 120 | 96.8 | 109 | 99.9 | 102 | 95.8 | 97.4 | 95.9 | 103 | 0 | 0 | 0 | 0 | 0
13 | CN1[C@@H]2CC[C@H]1C[C@@H](OC(c1ccc(F)cc1)c1ccc(F)cc1)C2 [3-alpha-bis-(4-fluorophenyl)-methoxytropane] | > 10 | > 10 | > 10 | – | > 10 | 109 | 106 | 99.5 | 126 | 86.5 | 102 | 103 | 100 | 97.9 | 86.1 | 102 | 96.1 | 101 | 96.8 | 93.1 | 102 | 96.3 | 92 | 93.6 | 74.1 | 95.5 | 90.9 | 92.6 | 102 | 102 | 0 | 0.3 | 0 | 1.6 | 0
